Results from PubChem BioAssay AID248 (DTP/NCI, 2004).
Values joined by “and” are separate entries in the source; they are usually repeats but may differ in a detail not shown here. Identical values can stand only once. Toxic doses and inconclusive results are not listed. Cut-off read from the data, not from the text of the source: active = T/C of 150% or more; inactive = T/C below 125%.

Tested on: L1210 leukemia ip in BDF1 mice, survival T/C
Assay: NCI In Vivo Anticancer Drug Screen. Data for tumor model L1210 Leukemia (intraperitoneal) in B6D2F1 (BDF1) mice
Conditions: endpoint: mean survival time, higher = longer survival
Procedure, shortened: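 Transplanted-tumor mice were given test agent; controls received vehicle only. Survival readings from the two groups were divided (treated over control).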

[1] = dose: 100.0 mg/kg/injection, schedule: Q01DX001 (ip), vehicle: carboxymethylcellulose (CMC)
[2] = dose: 200.0 mg/kg/injection, schedule: Q01DX001 (ip), vehicle: carboxymethylcellulose (CMC)
[3] = dose: 400.0 mg/kg/injection, schedule: Q01DX001 (ip), vehicle: carboxymethylcellulose (CMC)
[4] = dose: 75.0 mg/kg/injection, schedule: Q01DX001 (ip), vehicle: saline
[5] = dose: 100.0 mg/kg/injection, schedule: Q04DX002 (ip), vehicle: saline with Tween-80
[6] = dose: 200.0 mg/kg/injection, schedule: Q04DX002 (ip), vehicle: saline with Tween-80
[7] = dose: 400.0 mg/kg/injection, schedule: Q04DX002 (ip), vehicle: saline with Tween-80
[8] = dose: 100.0 mg/kg/injection, schedule: Q01DX001 (ip), vehicle: saline
[9] = dose: 200.0 mg/kg/injection, schedule: Q01DX001 (ip), vehicle: saline
[10] = dose: 100.0 mg/kg/injection, schedule: Q01DX009 (ip), vehicle: saline with Tween-80
[11] = dose: 200.0 mg/kg/injection, schedule: Q01DX009 (ip), vehicle: saline with Tween-80
[12] = dose: 400.0 mg/kg/injection, schedule: Q01DX009 (ip), vehicle: saline with Tween-80
[13] = dose: 100.0 mg/kg/injection, schedule: Q01DX009 (ip), vehicle: saline
[14] = dose: 200.0 mg/kg/injection, schedule: Q01DX009 (ip), vehicle: saline
[15] = dose: 100.0 mg/kg/injection, schedule: Q04DX003 (ip), vehicle: saline
[16] = dose: 400.0 mg/kg/injection, schedule: Q01DX009 (ip), vehicle: saline
[17] = dose: 400.0 mg/kg/injection, schedule: Q04DX003 (ip), vehicle: saline
[18] = dose: 50.0 mg/kg/injection, schedule: Q01DX001 (ip), vehicle: carboxymethylcellulose (CMC)

Measured: T/C

Cc1ccccc1SC(=O)Nc1cc([N+](=O)[O-])ccc1Cl
inactive: [1] 94 % of control and 90 % of control | dose: 100.0 mg/kg/injection, schedule: Q01DX009 (ip), vehicle: carboxymethylcellulose (CMC) 96 % of control | dose: 100.0 mg/kg/injection, schedule: Q04DX002 (ip), vehicle: carboxymethylcellulose (CMC) 97 % of control and 99 % of control | dose: 100.0 mg/kg/injection, schedule: Q04DX003 (ip), vehicle: carboxymethylcellulose (CMC) 89 % of control | [2] 94 % of control and 88 % of control | dose: 200.0 mg/kg/injection, schedule: Q01DX009 (ip), vehicle: carboxymethylcellulose (CMC) 98 % of control | dose: 200.0 mg/kg/injection, schedule: Q04DX002 (ip), vehicle: carboxymethylcellulose (CMC) 94 % of control and 101 % of control | dose: 200.0 mg/kg/injection, schedule: Q04DX003 (ip), vehicle: carboxymethylcellulose (CMC) 96 % of control and 91 % of control | [3] 97 % of control and 90 % of control | dose: 400.0 mg/kg/injection, schedule: Q01DX009 (ip), vehicle: carboxymethylcellulose (CMC) 94 % of control | dose: 400.0 mg/kg/injection, schedule: Q04DX002 (ip), vehicle: carboxymethylcellulose (CMC) 95 % of control and 101 % of control | dose: 400.0 mg/kg/injection, schedule: Q04DX003 (ip), vehicle: carboxymethylcellulose (CMC) 96 % of control and 92 % of control

c1cc2c(cc1CNC1CCCCC1)OCO2
inactive: [4] 100 % of control

C=CCOc1ccc(OCC=C)nn1
inactive: dose: 100.0 mg/kg/injection, schedule: Q04DX003 (ip), vehicle: Klucel (hydroxypropylcellulose) (HPC) 104 % of control | dose: 200.0 mg/kg/injection, schedule: Q04DX003 (ip), vehicle: Klucel (hydroxypropylcellulose) (HPC) 97 % of control | dose: 400.0 mg/kg/injection, schedule: Q04DX003 (ip), vehicle: Klucel (hydroxypropylcellulose) (HPC) 101 % of control

O=P(Nc1ccccc1)(N1CCCCC1)N1CCCCC1
inactive: [5] 101 % of control | [6] 101 % of control | [7] 108 % of control

CCCCCCCCC[As](=O)(O)O
inactive: dose: 1.5 mg/kg/injection, schedule: Q01DX001 (ip), vehicle: carboxymethylcellulose (CMC) 98 % of control | dose: 3.0 mg/kg/injection, schedule: Q01DX001 (ip), vehicle: carboxymethylcellulose (CMC) 104 % of control | dose: 60.0 mg/kg/injection, schedule: Q01DX001 (ip), vehicle: carboxymethylcellulose (CMC) 109 % of control

CCCCN(CCCC)S(=O)(=O)CCl
inactive: [5] 116 % of control | [6] 108 % of control | [7] 105 % of control

NCCOP(=O)(O)OCC1OC(n2cnc3c(N)ncnc32)C(O)C1O (configuration not stated)
inactive: dose: 100.0 mg/kg/injection, schedule: Q01DX005 (ip), vehicle: saline 92 % of control | dose: 200.0 mg/kg/injection, schedule: Q01DX005 (ip), vehicle: saline 92 % of control

c1ccc(N2CCNCC2)cc1 (tested in a mixture with another compound)
inactive: dose: 5.0 mg/kg/injection, schedule: Q01DX001 (ip), vehicle: saline 105 % of control and 101 % of control and 97 % of control | dose: 10.0 mg/kg/injection, schedule: Q01DX001 (ip), vehicle: saline 105 % of control and 97 % of control | dose: 20.0 mg/kg/injection, schedule: Q01DX001 (ip), vehicle: saline 105 % of control and 94 % of control and 95 % of control | dose: 40.0 mg/kg/injection, schedule: Q01DX001 (ip), vehicle: saline 102 % of control and 100 % of control | dose: 80.0 mg/kg/injection, schedule: Q01DX001 (ip), vehicle: saline 100 % of control | [8] 98 % of control | [9] 96 % of control

CCOC(=O)C1OC12CCC(C(C)(C)C)CC2 (configuration not stated)
inactive: [10] 95 % of control | [5] 100 % of control | [11] 91 % of control | [6] 100 % of control | [12] 88 % of control | [7] 93 % of control

CC1OC(C2COC(C)(C)O2)C2OC(C)(C)OC12 (configuration not stated)
inactive: dose: 100.0 mg/kg/injection, schedule: Q01DX001 (ip), vehicle: saline with Tween-80 101 % of control | dose: 200.0 mg/kg/injection, schedule: Q01DX001 (ip), vehicle: saline with Tween-80 101 % of control | dose: 400.0 mg/kg/injection, schedule: Q01DX001 (ip), vehicle: saline with Tween-80 101 % of control

O=C(O)c1cc(=O)n(CCCn2c(=O)cc(C(=O)O)[nH]c2=O)c(=O)[nH]1
inactive: [5] 93 % of control | [6] 101 % of control | [7] 89 % of control

[CH3][Sn]([CH3])([CH3])[CH2][Sn]([CH3])([CH3])[CH3]
inactive: dose: 50.0 mg/kg/injection, schedule: Q01DX009 (ip), vehicle: saline 101 % of control | [13] 93 % of control and 103 % of control | [14] 98 % of control

CC(=O)C1(O)CCCCC1
inactive: [13] 104 % of control | [15] 92 % of control | [14] 98 % of control | dose: 200.0 mg/kg/injection, schedule: Q04DX003 (ip), vehicle: saline 98 % of control | [16] 109 % of control | [17] 94 % of control

SCc1ccccc1
inactive: [8] 91 % of control | [9] 111 % of control | dose: 400.0 mg/kg/injection, schedule: Q01DX001 (ip), vehicle: saline 105 % of control

O=S(=O)(O)c1ccc2c(O)cc(S(=O)(=O)O)cc2c1
inactive: [13] 106 % of control | [15] 95 % of control | [14] 112 % of control | [16] 103 % of control | [17] 100 % of control

CCCCCCC1N(Cc2ccccc2N(C)C)CCCN1Cc1ccccc1N(C)C
inactive: [4] 94 % of control | dose: 150.0 mg/kg/injection, schedule: Q01DX001 (ip), vehicle: saline 94 % of control | dose: 300.0 mg/kg/injection, schedule: Q01DX001 (ip), vehicle: saline 89 % of control

COc1ccc(/C=C/C(=O)c2cc(O)cc(OC)c2)cc1
inactive: [10] 102 % of control | dose: 100.0 mg/kg/injection, schedule: Q04DX003 (ip), vehicle: saline with Tween-80 100 % of control | [11] 94 % of control | dose: 200.0 mg/kg/injection, schedule: Q04DX003 (ip), vehicle: saline with Tween-80 108 % of control | [12] 94 % of control | dose: 400.0 mg/kg/injection, schedule: Q04DX003 (ip), vehicle: saline with Tween-80 95 % of control

O=C1N(Cl)C2C(N1Cl)N(Cl)C(=O)N2Cl (configuration not stated)
inactive: [18] 97 % of control | [1] 97 % of control

Cn1cccc1C=O
inactive: [10] 102 % of control | [11] 100 % of control | [12] 97 % of control

COc1ccc(CN2CCCN(Cc3ccc(OC)cc3OC)C2c2cc([N+](=O)[O-])ccc2O)c(OC)c1
inactive: [18] 107 % of control | [1] 98 % of control | [2] 101 % of control | [3] 98 % of control

O=C(CNC(=O)OCc1ccccc1)NC(Cc1ccccc1)C(=O)Oc1c(Cl)c(Cl)c(Cl)c(Cl)c1Cl (configuration not stated)
inactive: dose: 75.0 mg/kg/injection, schedule: Q01DX001 (ip), vehicle: carboxymethylcellulose (CMC) 106 % of control | dose: 150.0 mg/kg/injection, schedule: Q01DX001 (ip), vehicle: carboxymethylcellulose (CMC) 98 % of control | dose: 300.0 mg/kg/injection, schedule: Q01DX001 (ip), vehicle: carboxymethylcellulose (CMC) 91 % of control

CCOC(=O)N1CC2CCC(C1)N2C
inactive: dose: 12.5 mg/kg/injection, schedule: Q04DX003 (ip), vehicle: saline 103 % of control | dose: 25.0 mg/kg/injection, schedule: Q04DX003 (ip), vehicle: saline 106 % of control | dose: 50.0 mg/kg/injection, schedule: Q04DX003 (ip), vehicle: saline 101 % of control
